Columns and labels:
[1] = Hydrolysis kinetics in rat liver homogenates; assay type: in vitro ADME
Experimental: Livers were obtained from male Wistar rats, which were sacrificed by decapitation, after a slight isoflurane anesthesia. The livers were immediately isolated, and, after washing with ice-cold saline solution, they were homogenized in 4 volumes (w/v) of Tris HCl (50 mM, pH 7.4, 4 °C) by using a Potter–Elvehjem apparatus. The supernatant obtained after centrifugation (2000× g for 10 min at 4 °C) was decanted off and stored at −80 °C before its use for kinetic studies.
Kinetic analysis of Fer-Ger was performed by its incubation at 37 °C in 3 mL of rat liver or brain homogenates at 30 µM (9.92 µg/mL) final concentration. At defined time intervals, 100 μL of homogenates were withdrawn and immediately treated by quenching them in EtOH (250 µL), then an internal standard (100 μM carbazole dissolved in EtOH, 50 µL) was added. The samples were centrifuged (13,500× g for 10 min), and the 300 μL aliquots were reduced to dryness under a nitrogen stream. […]
(§1) The Fer-Ger degradation in whole blood or homogenates was analyzed as exponential decay plots of its concentrations versus incubation time, and the related half-life values were obtained from the linear regression of the corresponding semi-logarithmic plots. The quality of the fits was evaluated by considering the correlation coefficients (r) and p values. […]
(§2) Fer-Ger and its hydrolysis product, Ger, were quantified by HPLC. […]

[2] = Hydrolysis kinetics in rat brain homogenates; assay type: in vitro ADME; conditions: within 3 h, 37 °C, 30 µM
Experimental: Brains were obtained from male Wistar rats, which were sacrificed by decapitation after a slight isoflurane anesthesia. The brains were immediately separated and homogenized in 5 volumes (w/v) of Tris HCl (50 mM, pH 7.4, 4 °C) using an ultra-Turrax (IKA Werke GmbH & Co. KG, Staufen, Germany) with 3 × 15 s bursts. After centrifugation of the homogenate (3000× g for 15 min at 4 °C), the supernatant was isolated and stored at −80 °C until its use for in vitro kinetic studies. The Lowry procedure was adopted to quantify the total protein concentration in the brain homogenate, resulting in 7.4 ± 0.4 μg protein/μL.
Kinetic analysis of Fer-Ger was performed by its incubation at 37 °C in 3 mL of rat liver or brain homogenates at 30 µM (9.92 µg/mL) final concentration. At defined time intervals, 100 μL of homogenates were withdrawn and immediately treated by quenching them in EtOH (250 µL), then an internal standard (100 μM carbazole dissolved in EtOH, 50 µL) was added. […]
as §1, §2

differentiated N2a cells = assay: MTT assay of H2O2-altered viability (neuroprotection); assay type: cell-based, mouse; conditions: then 100 µM H2O2 for 24 h
Experimental: N2a cells were seeded on T75 flasks and grown in Dulbecco’s Modified Eagle Medium (DMEM) containing Glutamax, supplemented with 100 μg/mL streptomycin, 100 IU/mL penicillin, and 10% fetal bovine serum (FBS) in a humidified 5% CO2 atmosphere at 37 °C. After two passages by trypsinization, cells were seeded at a density of 5 × 10^3 cells/well in 12-well plates with 2 mL of DMEM or at a density of 5 × 10^2 cells/well in 96-well plates with 0.2 mL of DMEM, depending on the study (see below). For neural differentiation, N2a cells were allowed to adhere and proliferate in wells for 4 days; then, after washing once with serum-free DMEM, differentiating medium composed of DMEM containing 1% HS and 20 μM all-trans-retinoic acid (atRA) was added in both the seeding conditions, up to 6 days of differentiation, after which the cells were used for the experiments.
The MTT assay was also carried out to determine the neuroprotective effect of Fer-Ger on H2O2-induced cell oxidative stress in N2a neuronal cells. Briefly, N2a cells (5 × 10^2) were seeded and differentiated into 96-well plates, as reported above. Then, cells were incubated with 1 µM and 5 µM Fer-Ger dissolved in DMEM containing 0.5% HS for 1 h in a humidified 5% CO2 atmosphere at 37 °C. The experimental design therefore included cells incubated with only culture medium as a control and cells incubated for 24 h with 100 µM H2O2 as a damage-inducing agent after 1 h of preincubation in the absence or presence of 1 µM or 5 µM Fer-Ger. Then, 20 μL of MTT (5 mg/mL) was added into the 200 µL of the incubation medium. Four hours later, the medium containing MTT was aspirated and replaced by 100 µL of dimethyl sulfoxide (DMSO) solubilization agent for 1 h at 37 °C in an orbital shaker incubator. Finally, the absorbance of each well was measured at 570 nm using a microtiter plate reader (Sunrise® Microplate Reader, Tecan Trading AG, Männedorf, Switzerland).

## COc1cc(/C=C/C(=O)OC/C=C(\C)CCC=C(C)C)ccc1O [Fer-Ger, Geranyl ferulate]
[1]
  time to complete hydrolysis: about 30 min
[1]; male, Wistar, liver homogenate, pH 7.4, 37 °C, 30 µM, pseudo-first-order kinetic
  half-life at 30 µM: 3.94 ± 0.33 min
[2]
  hydrolysis / stability: total absence of hydrolysis processes
Differentiated N2a cells; 1 µM Fer-Ger preincubated 1 h
  prevention of H2O2-induced cell viability damage: fully prevented
Differentiated N2a cells; 5 µM Fer-Ger preincubated 1 h
  prevention of H2O2-induced cell viability damage: fully prevented

Source: publication PMC11172460 (International Journal of Molecular Sciences, 2024)
